According to patent US20050112573A1, “Method of detecting toxic substance” (priority 2001, published 2005):

Tested on: yeast genes (level of expressed mRNA)
Experiment: DNA chip analysis of expressed mRNA of yeast genes after 2 h culture with a toxic chemical substance
Type: cell-based, Saccharomyces cerevisiae S288C
Procedure: Yeast (Saccharomyces cerevtisiae S288C (α SUC2mal mel gap2 CUP1)) were cultured at 25° C. on YPD medium (yeast extract 1%, polypepton 2%, glucose 2%). One of toxic chemical substances was added to the cell at logarithmic growth phase, and the cell was further cultured for two hours. Cell was cultured without any chemical substance in the same condition, and was used as control. Concentrations of the chemical substances were defined to inhibit the growth of the yeast but not lead to death.
After the completion of cultivation, the culture was centrifuged to collect the cells. To the cells, sodium acetate buffer (50 mM sodium acetate, 10 mM EDTA, 1% SDS) was added, and the mixture was shaken at 65° C. for five minutes, followed by returning to room temperature, and obtaining the supernatant, which procedure was repeated two times. To the supernatant, ½ amount of a solution of phenol/chloroform was added, and the mixture was centrifuged to give a supernatant, which was added with an equal amount of chloroform, and the mixture was centrifuged to give a supernatant. To the supernatant, an equal amount of isopropanol containing 0.3 M sodium acetate was added, and the mixture was allowed to stand at room temperature for 30 minutes, after which the mixture was centrifuged to give a sediment of the whole RNAs. Seventy % ethanol was added to the sediment, and the mixture was again centrifuged to give a sediment, which was then dried and dissolved in water. mRNA was isolated from the whole RNAs as followings. In view of the fact that a poly A chain is attached to the 3′ terminus of mRNA, a polynucleotide having a poly T structure which was immobilized on the surface of latex beads was used to trap the mRNA, and then the mRNA was washed and eluted with spine column (Oligotex-dT30<Super>mRNA Purification Kit, Takara). Reverse transcription of the mRNA was conducted with a reverse transcriptase (Super Script II Reverse Transcriptase; catalogue No. 18064-014, GibcoBRL) using fluorescence-labeled nucleotides to give cDNAs that were introduced with Cy3-dUTP or Cy5-dUTP during the reverse transcription.
The labeled cDNAs were dissolved in TE buffer (10 mM Tris-HCl/1 mM EDTA, pH8.0), and the solution was dropped on the DNA chip containing the whole genes of yeast (DNA Chip Research Inc. Japan) so that the cDNAs were hybridized on the DNA chip at 65° C. for over 12 hours. The fluoresces intensity of the DNA chip was read with a scanner, and the ratio relative to the fluorescence intensity resulting from the absence of chemical substance was estimated as the following, which is shown in Tables 1 to 9: [formula]
In the Tables, “Intensity” indicated in the rightmost column is a value of the level of expressed mRNA of each gene in control cells as divided by the average level of the expressions of the whole genes.

With `CCCCCCCCCCCCOS(=O)(=O)[O-].[Na+]` [(18), sodium lauryl sulfate] the “level of expressed mRNA in the presence of chemical substance/in its absence” value (“level … of chemical substance/in its absence” for short) (gene YAL012W) was 0.8, the “The level of expressed mRNA in the presence of chemical substance/absence: YAL014C” value (gene YAL014C) was 1.1 and the “The level of expressed mRNA in the presence of chemical substance/absence: YAL017W” value (gene YAL017W) was 1.2. The “The level of expressed mRNA in the presence of chemical substance/absence: YAL018C” value (gene YAL018C) was 0.9, the “level … of chemical substance/in its absence” value (gene YAL038W) was 1.0 and the “level … of chemical substance/in its absence” value (gene YAL044C) was 1.8. The “The level of expressed mRNA in the presence of chemical substance/absence: YAL049C” value (gene YAL049C) was 1.8, the “level … of chemical substance/in its absence” value (gene YAL054C) was 1.4 and the “The level of expressed mRNA in the presence of chemical substance/absence: YAR047C” value (gene YAR047C) was 1.0. For the same compound, the “The level of expressed mRNA in the presence of chemical substance/absence: YAR064W” value (gene YAR064W) was 0.9, the “level … of chemical substance/in its absence” value (gene YAR071W) was 1.6 and the “level … of chemical substance/in its absence” value (gene YBL001C) was 1.8. For the same compound, the “The level of expressed mRNA in the presence of chemical substance/absence: YBL044W” value (gene YBL044W) was 0.8, the “The level of expressed mRNA in the presence of chemical substance/absence: YBL100C” value (gene YBL100C) was 0.8 and the “The level of expressed mRNA in the presence of chemical substance/absence: YBR012C” value (gene YBR012C) was 1.2. For the same compound, the “The level of expressed mRNA in the presence of chemical substance/absence: YBR013C” value (gene YBR013C) was 1.1, the “level … of chemical substance/in its absence” value (gene YBR014C) was 1.6 and the “level … of chemical substance/in its absence” value (gene YBR023C) was 0.9. For the same compound, the “level … of chemical substance/in its absence” value (gene YBR029C) was 0.8, the “level … of chemical substance/in its absence” value (gene YBR035C) was 1.9 and the “level … of chemical substance/in its absence” value (gene YBR050C) was 1.8. For the same compound, the “The level of expressed mRNA in the presence of chemical substance/absence: YBR051W” value (gene YBR051W) was 0.8, the “The level of expressed mRNA in the presence of chemical substance/absence: YBR063C” value (gene YBR063C) was 1.2 and the “The level of expressed mRNA in the presence of chemical substance/absence: YBR066C” value (gene YBR066C) was 1.2. The “level … of chemical substance/in its absence” value (gene YBR068C) was 1.3, the “level … of chemical substance/in its absence” value (gene YBR111C) was 2.4 and the “The level of expressed mRNA in the presence of chemical substance/absence: YBR124W” value (gene YBR124W) was 0.9. For the same compound, the “The level of expressed mRNA in the presence of chemical substance/absence: YBR129C” value (gene YBR129C) was 1.5, the “level … of chemical substance/in its absence” value (gene YBR145W) was 2.0 and the “The level of expressed mRNA in the presence of chemical substance/absence: YBR162C” value (gene YBR162C) was 1.3. For the same compound, the “level … of chemical substance/in its absence” value (gene YBR183W) was 2.4, the “level … of chemical substance/in its absence” value (gene YBR222C) was 0.9 and the “The level of expressed mRNA in the presence of chemical substance/absence: YBR255W” value (gene YBR255W) was 1.0. For the same compound, the “The level of expressed mRNA in the presence of chemical substance/absence: YBR281C” value (gene YBR281C) was 0.8, the “The level of expressed mRNA in the presence of chemical substance/absence: YBR287W” value (gene YBR287W) was 1.9 and the “level … of chemical substance/in its absence” value (gene YBR299W) was 1.1. For the same compound, the “level … of chemical substance/in its absence” value (gene YCL009C) was 0.8, the “The level of expressed mRNA in the presence of chemical substance/absence: YCL044C” value (gene YCL044C) was 0.6 and the “The level of expressed mRNA in the presence of chemical substance/absence: YCL056C” value (gene YCL056C) was 1.5. For the same compound, the “level … of chemical substance/in its absence” value (gene YCL064C) was 0.3, the “The level of expressed mRNA in the presence of chemical substance/absence: YCR007C” value (gene YCR007C) was 2.1 and the “level … of chemical substance/in its absence” value (gene YCR037C) was 0.9. The “level … of chemical substance/in its absence” value (gene YCR048W) was 0.8, the “level … of chemical substance/in its absence” value (gene YCR098C) was 1.6 and the “level … of chemical substance/in its absence” value (gene YDL022W) was 1.4. The “The level of expressed mRNA in the presence of chemical substance/absence: YDL046W” value (gene YDL046W) was 1.6, the “The level of expressed mRNA in the presence of chemical substance/absence: YDL089W” value (gene YDL089W) was 1.1 and the “The level of expressed mRNA in the presence of chemical substance/absence: YDL173W” value (gene YDL173W) was 1.8. The “The level of expressed mRNA in the presence of chemical substance/absence: YDL193W” value (gene YDL193W) was 1.4, the “The level of expressed mRNA in the presence of chemical substance/absence: YDL233W” value (gene YDL233W) was 1.4 and the “level … of chemical substance/in its absence” value (gene YDR009W) was 1.0. The “level … of chemical substance/in its absence” value (gene YDR019C) was 1.6, the “The level of expressed mRNA in the presence of chemical substance/absence: YDR071C” value (gene YDR071C) was 1.6 and the “The level of expressed mRNA in the presence of chemical substance/absence: YDR078C” value (gene YDR078C) was 1.2. For the same compound, the “The level of expressed mRNA in the presence of chemical substance/absence: YDR090C” value (gene YDR090C) was 1.1, the “The level of expressed mRNA in the presence of chemical substance/absence: YDR109C” value (gene YDR109C) was 0.9 and the “The level of expressed mRNA in the presence of chemical substance/absence: YDR128W” value (gene YDR128W) was 0.9.
